One assay relates to P388. As to the kind of experiment: In vitro inhibition of growth of p388 cells. The class given is functional. The conditions noted are these: Mus musculus, read-out: ED50 (the source's name).
The subject of the next assay is NCI. Nature of the assay: Overall panel averaged growth inhibitory concentration against the U. S. National Cancer Institute panel of sixty human cancer cell lines. The class given is functional.

Values after ≈ are worked out from the molar mass of the structure shown. Where a SMILES comes first, the peptide text is derived from it.

Turning to `CC[C@H](C)[C@@H]1NC(=O)[C@@H]2CCCN2C(=O)[C@@H]2CCCN2C(=O)[C@H]([C@@H](C)CC)NC(=O)[C@H](Cc2ccc(O)cc2)NC(=O)[C@@H]2CCCN2C(=O)[C@@H]2CCCN2C(=O)[C@H](CC(C)C)NC(=O)[C@H](C)NC(=O)[C@H](Cc2ccccc2)NC1=O` (cyclo(ALPPYIPPIF)), the EC50 in the assay on P388 was found to be 3 µg/mL (≈ 2.7 µM). In the assay on NCI, this compound yielded a GI50 of 0.55 µM.
On to `CC[C@H](C)[C@@H]1NC(=O)[C@@H]2CCCN2C(=O)[C@@H]2CCCN2C(=O)[C@H]([C@@H](C)CC)NC(=O)[C@H](Cc2ccc(O)cc2)NC(=O)[C@@H]2CCCN2C(=O)[C@@H]2CCCN2C(=O)[C@H](CC(C)C)NC(=O)[C@H](C(C)C)NC(=O)[C@H](Cc2ccccc2)NC1=O` (cyclo(FVLPPYIPPI)), for which, in the assay on P388, the EC50 stood at 2.9 µg/mL (≈ 2.55 µM). Also, the GI50 in the assay on NCI was > 10 µM.
The matching figures for `CC[C@H](C)[C@@H]1NC(=O)[C@@H]2CCCN2C(=O)[C@@H]2CCCN2C(=O)[C@H](C(C)C)NC(=O)[C@H](Cc2ccc(O)cc2)NC(=O)[C@@H]2CCCN2C(=O)[C@@H]2CCCN2C(=O)[C@H](CC(C)C)NC(=O)[C@H](C(C)C)NC(=O)[C@H](Cc2ccccc2)NC1=O` (cyclo(FVLPPYVPPI)): 4.1 µg/mL (≈ 3.65 µM) and > 10 µM.

These data come from ChEMBL document CHEMBL1128751, “Isolation and structure of the human cancer cell growth inhibitory cyclic decapeptides phakellistatins 7, 8 and 91,2” (1995).
